# Tested on: IgG from human donors (anti-AAV antibodies)
# Experiment: Screen for anti-AAV antibodies in human sera, 2452 linear 15-amino-acid AAV peptides on microarrays (Table 1)
# Type: binding
# Design: key to group I: X: the deduplicated aggregate of the respective top 10 peptide hits for each donor was compiled and designated as group I; key to group II: X: the deduplicated aggregate of the respective top 25 peptide hits for each donor was compiled and designated as group II; key to group III: X: the deduplicated aggregate of the respective top 50 peptide hits for each donor was compiled and designated as group III
# Conditions: for group I: membership in deduplicated aggregate of top 10 peptide hits for each donor
# Experimental: 2452 linear peptides derived from the sequences of 16 different AAVs and with a sequence length of 15 amino-acids each were synthesized.
# Samples obtained from human donors were screened for antibodies against these AAV-derived peptides immobilized on microarrays. To this end, IgG was prepared from blood obtained from the human donors by protein G purification. Each IgG sample was incubated with the peptide microarrays and Ig binding signals were detected by fluorescence. All antibody binding signals to the peptides on the arrays were background subtracted and ranked for each sample and a deduplicated aggregate of the respective top 250 peptide hits for each donor with the corresponding protein sequence of origin (as obtained from UniProt or other sources) was compiled (designated as group IV). Further, the deduplicated aggregate of the respective top 50 peptide hits for each donor was compiled and designated as group III. Further, the deduplicated aggregate of the respective top 25 peptide hits for each donor was compiled and designated as group II. Finally, the deduplicated aggregate of the respective top 10 peptide hits for each donor was compiled and designated as group I.
# Altogether, group I contains 110 distinct peptide hits (assigned to the corresponding AAV vectors in Table 1), group II contains 289 distinct peptide hits, group III contains 428 distinct peptide hits and group IV contains 1271 distinct peptide hits. Evidently, group I is a subset of group II which in turn is a subset of group III which in turn is a subset of group IV. Groups I-IV correspond to the top 4.4%, […], 17.5% and 51.8%, respectively, of all peptides screened.
# [1] = X = peptide belongs to the deduplicated aggregate of the top 50 peptide hits for each donor, linear 15-amino-acid AAV peptides, IgG binding by fluorescence
# [2] = human donor IgG binding to linear 15-amino-acid AAV peptides on microarray, fluorescence
# [3] = membership in deduplicated aggregate of top 25 peptide hits for each donor, human donor IgG binding to linear 15-amino-acid AAV peptides on microarray, fluorescence
# [4] = membership in deduplicated aggregate of top 50 peptide hits for each donor, human donor IgG binding to linear 15-amino-acid AAV peptides on microarray, fluorescence
# [5] = X = peptide belongs to the deduplicated aggregate of the top 25 peptide hits for each donor, linear 15-amino-acid AAV peptides, IgG binding by fluorescence
# [6] = X = peptide in the deduplicated aggregate of the top 50 peptide hits for each donor (top 17.5% of all peptides screened), linear 15-amino-acid AAV peptides on microarrays, human donor IgG, fluorescence
substance,measurement,setting,value
339 (GNNFTFSYTFEDVPF; REGION 1..15: note = peptide derived from viral capsid protein) [compound 339],group III,[1],X
YYKSTNVDFAVNTE [SEQ ID NO: 1916],group I,[2],X
same,group II,[3],X
same,group III,[4],X
HYFGYSTPWGYFDF (REGION 1..14: note = peptide derived from viral capsid protein) [SEQ ID NO: 1917],group I,[2],X
same,group II,[3],X
same,group III,[4],X
383 (FNGLDKGEPVNAADA; REGION 1..15: note = peptide derived from viral capsid protein) [compound 383],group III,[1],X
283 (EFLGLEAGPPKPKPN; REGION 1..15: note = peptide derived from viral capsid protein) [compound 283],group II,[5],X
same,group III,[1],X
285 (PSKMLRTGNNFEFTY; REGION 1..15: note = peptide derived from viral capsid protein) [compound 285],group II,[5],X
same,group III,[1],X
DEEEIKATNPVATE (REGION 1..14: note = peptide derived from viral capsid protein) [SEQ ID NO: 1932],group I,[2],X
same,group II,[3],X
same,group III,[4],X
328 (STVQVFTDSEYQLPY; REGION 1..15: note = peptide derived from viral capsid protein) [compound 328],group III,[1],X
DKAYDRQLDSGDNP (REGION 1..14: note = peptide derived from viral capsid protein) [SEQ ID NO: 1926],group I,[2],X
same,group II,[3],X
same,group III,[4],X
445 (NNSNFAWTAGTKYHL; REGION 1..15: note = peptide derived from viral capsid protein) [compound 445],group III,[6],X
481 (LGLEAGPPKPKPNQQ; REGION 1..15: note = peptide derived from viral capsid protein) [compound 481],group III,[6],X
483 (TMSAGGGGPLGDNNQ; REGION 1..15: note = peptide derived from viral capsid protein) [compound 483],group III,[6],X
385 (TTSTRTWALPTYNNH; REGION 1..15: note = peptide derived from viral capsid protein) [compound 385],group III,[1],X
288 (VQDSTTTIANNLTST; REGION 1..15: note = peptide derived from viral capsid protein) [compound 288],group II,[5],X
same,group III,[1],X
411 (ILIKNTPVPADPPTA; REGION 1..15: note = peptide derived from viral capsid protein) [compound 411],group III,[6],X
453 (FGYSTPWGYFDFNRF; REGION 1..15: note = peptide derived from viral capsid protein) [compound 453],group III,[6],X
EEIKTTNPVATEQY (REGION 1..14: note = peptide derived from viral capsid protein) [SEQ ID NO: 1945],group I,[2],X
same,group II,[3],X
same,group III,[4],X
384 (HSSYAHSQSLDRLMN; REGION 1..15: note = peptide derived from viral capsid protein) [compound 384],group III,[1],X
326 (PVATEQYGSVSTNLQ; REGION 1..15: note = peptide derived from viral capsid protein) [compound 326],group III,[1],X
425 (ELQKENSKRWNPEIQ; REGION 1..15: note = peptide derived from viral capsid protein) [compound 425],group III,[6],X
KGEPVNAADAAALE (REGION 1..14: note = peptide derived from viral capsid protein) [SEQ ID NO: 1952],group I,[2],×
same,group II,[3],X
same,group III,[4],X
382 (FHSSYAHSQSLDRLM; REGION 1..15: note = peptide derived from viral capsid protein) [compound 382],group III,[1],X
434 (TNPVATEEYGIVADN; REGION 1..15: note = peptide derived from viral capsid protein) [compound 434],group III,[6],X
430 (NTPVPADPPTTFNQS; REGION 1..15: note = peptide derived from viral capsid protein) [compound 430],group III,[6],X
DSQWLGDRVITTST (REGION 1..14: note = peptide derived from viral capsid protein) [SEQ ID NO: 1892],group I,[2],X
same,group II,[3],X
same,group III,[4],X
SGGSTNDNTYFGYS [SEQ ID NO: 1965],group I,[2],X
same,group II,[3],X
same,group III,[4],X
321 (IEKVMITDEEEIRTT; REGION 1..15: note = peptide derived from viral capsid protein) [compound 321],group III,[1],X
350 (TQYSTGQVSVEIEWE; REGION 1..15: note = peptide derived from viral capsid protein) [compound 350],group III,[1],X
475 (AGPPKPKPNQQHQDQ; REGION 1..15: note = peptide derived from viral capsid protein) [compound 475],group III,[6],X
301 (STTLSQNNNSNFAWT; REGION 1..15: note = peptide derived from viral capsid protein) [compound 301],group III,[1],×
335 (VKEVTQNDGTTTIAN; REGION 1..15: note = peptide derived from viral capsid protein) [compound 335],group III,[1],X
GNTSQQQTDRNAFY (REGION 1..14: note = peptide derived from viral capsid protein) [SEQ ID NO: 1897],group I,[2],X
same,group II,[3],X
same,group III,[4],X
353 (TPWGYFDFNRFHCHF; REGION 1..15: note = peptide derived from viral capsid protein) [compound 353],group III,[1],X
407 (NTPVPADPPTAFNKD; REGION 1..15: note = peptide derived from viral capsid protein) [compound 407],group III,[6],X
294 (GDSESVPDPQPIGEP; REGION 1..15: note = peptide derived from viral capsid protein) [compound 294],group III,[1],X
DKDKFFPMSGVMIF (REGION 1..14: note = peptide derived from viral capsid protein) [SEQ ID NO: 1933],group I,[2],X
same,group II,[3],X
same,group III,[4],X
TGDSESVPDPQPIG [SEQ ID NO: 1967],group I,[2],X
same,group II,[3],X
same,group III,[4],X
410 (ENVPFHSSYAHSQSL; REGION 1..15: note = peptide derived from viral capsid protein) [compound 410],group III,[6],X
333 (MITDEEEIRTTNPVA; REGION 1..15: note = peptide derived from viral capsid protein) [compound 333],group III,[1],X
